Results reported in US20240130999A1, “Inhibition of SLC4A4 in the Treatment of Cancer” (VIB VZW, priority 2021, published 2024).

Legend:
KPC orthotopic tumors [1] = experiment: DIDS treatment of mice bearing orthotopic KPC tumors (tumor growth, tumor weight); assay type: in vivo, mouse; details: 15 mg/kg DIDS i.p. bi-daily for 10 days
Method: C57BL6/N were injected subcutaneously in the right flank with 1*10^6 Panc02 cells (pancreatic cancer cell line), 2*10^6 KP cells (lung cancer cell line), 0.8*10^6 KR158B cells (glioblastoma cell line), or 5*106 CMT-93 cells (colorectal cancer cell line) in 200 μl. Tumor growth was monitored by measuring the perpendicular diameters of tumors every other day and mice were sacrificed at a humane endpoint. FVB mice were injected orthotopically in the head of the pancreas with 10′000 KPC cells in 20 μl. Body weight was monitored and mice were sacrificed at a humane endpoint. Alternatively, FVB mice were injected subcutaneously in the right flank with 0,5*10^6 KPC cells in 200 μl. Tumor growth was monitored by measuring the perpendicular diameters of tumors every other day and mice were sacrificed at a humane endpoint. For immunotherapy treatment the mice were treated intraperitoneally (i.p.) with 10 mg/kg of either control IgG, anti-PD-1 (αPD-1), anti-PDL1 (αPDL1), or anti-CTLA-4 (αCTLA-4) antibodies (3×/week). For CD8 depletion mice were injected i.p. with an anti-CD8 antibody (10 mg/kg) 3 days before tumor inoculation and then 1 time per week. For in vivo slc4a4 inhibition, mice were treated with 15 mg/kg of 4,4′-Diisothiocyano-2,2′-stilbenedisulfonic acid (DIDS) i.p. bi-daily for a period of 10 days. […]

KPC orthotopic tumors [2] = experiment: FACS analysis of immune infiltrate in orthotopic KPC tumors of DIDS-treated mice; assay type: in vivo, mouse; details: WT KPC orthotopic tumors, DIDS vs DMSO, flow cytometry
Method: C57BL6/N were injected subcutaneously in the right flank with 1*10^6 Panc02 cells (pancreatic cancer cell line), 2*10^6 KP cells (lung cancer cell line), 0.8*10^6 KR158B cells (glioblastoma cell line), or 5*106 CMT-93 cells (colorectal cancer cell line) in 200 μl. Tumor growth was monitored by measuring the perpendicular diameters of tumors every other day and mice were sacrificed at a humane endpoint. FVB mice were injected orthotopically in the head of the pancreas with 10′000 KPC cells in 20 μl. Body weight was monitored and mice were sacrificed at a humane endpoint. Alternatively, FVB mice were injected subcutaneously in the right flank with 0,5*10^6 KPC cells in 200 μl. Tumor growth was monitored by measuring the perpendicular diameters of tumors every other day and mice were sacrificed at a humane endpoint. For immunotherapy treatment the mice were treated intraperitoneally (i.p.) with 10 mg/kg of either control IgG, anti-PD-1 (αPD-1), anti-PDL1 (αPDL1), or anti-CTLA-4 (αCTLA-4) antibodies (3×/week). For CD8 depletion mice were injected i.p. with an anti-CD8 antibody (10 mg/kg) 3 days before tumor inoculation and then 1 time per week. For in vivo slc4a4 inhibition, mice were treated with 15 mg/kg of 4,4′-Diisothiocyano-2,2′-stilbenedisulfonic acid (DIDS) i.p. bi-daily for a period of 10 days. Antibodies: Rat serum IgG (14131) (Sigma-Aldrich); Ultra-LEAF™ Purified PD-1anti-mouse (CD279) RMP1-14 (BioLegend); InVivoMAb anti-mouse CTLA-4 (CD152) (BioCell); InVivoMAb anti-mouse CD8α (BioCell); InVivoMab anti-mouse PD-L1 (B7-H1) (BioCell).
Mice were sacrifice by cervical dislocation and the tumor were harvested in cold PBS. Tumors were minced in alpha MEM (Lonza) containing 0,085 mg/ml Collagenase V (Sigma), 0,125 mg/ml Collagenase D (Roche) and 0,1 mg/ml Dispase (Gibco), and incubated in the same solution for 30 minutes at 37° C. The digested tissues were filtered using a 70-μm pore sized strainer and cells were centrifuged 5 minutes at 300 xg. Red blood cell lysis was performed by using a home-made red blood cell lysis buffer (150 mM NH4Cl, 0.1 mM EDTA, 10 mM KHCO3, pH 7.4. Single cells were resuspended in FACS buffer (PBS containing 2% FBS and 2 mM EDTA) and incubated for 15 minutes with Mouse BD Fc Block purified anti-mouse CD16/CD32 mAb (BD-Pharmingen) and stained for 30 minutes at 4° C. with the following antibodies: Fixable viability dye (eFluor™ 450 or eFluor™ 506, 1:500),CD45 (PE, 1:200), TCRβ (FITC, 1:300), CD4 (PercPcy5.5, 1:400), CD8 (APC-cy7, 1:300), IFNγ (PE-cy7, 1:100), Foxp3 (APC, 1:100), TBet1 (BV421, 1:50)-from BD Biosciences. Cells were subsequently washed and resuspended in FACS buffer before FACS analysis by a FACS Canto II (BD Biosciences). Data was analyzed by Flowio (TreeStar).

Compound: O=S(=O)(O)c1cc(N=C=S)ccc1C=Cc1ccc(N=C=S)cc1S(=O)(=O)O [DIDS, 4,4′-diisothiocyano-2,2′-stilbenedisulfonic acid]
- tumor reduction upon treatment (KPC orthotopic tumors [1]; Slc4a4-KD orthotopic KPC tumors): no differences in tumor reduction
- tumor growth (KPC orthotopic tumors [1]; wild-type (control, NT) orthotopic KPC tumors): reduction in tumor growth
- CD8+ T cells infiltration (KPC orthotopic tumors [2]): increase
- CD8+/CD4+ T cell ratio (KPC orthotopic tumors [2]): increase
- IFNγ expression of CD8+ T cells (KPC orthotopic tumors [2]): increase
- number of CD4+ T cells (KPC orthotopic tumors [2]): no differences
- number of Treg (KPC orthotopic tumors [2]): no differences
